What was measured:
BCL-2 = target: T1, BCL-2 (Homo sapiens, UniProt P10415); assay: HTRF BCL-2/BAK assay (Cisbio); type: binding; conditions: recombinant human Tag1-BCL-2 2 nM, Tag2-BAK 10 nM
T1 construct: purchased Cisbio 63ADK000CB01PEG
Protocol: Then the pre-mixed anti-Tag1-Eu^3+ and anti-tag2-XL665 were added to the plate and further incubated at room temperature for another 2 hours. The signals ([…]) were read on Envision 2104 instrument. The IC50 for each compound was derived from fitting the signal of 665/615 nM to the increasing compound concentration.
Using the above assays, the following compounds were tested.

DOHH2 cells = assay: CellTiter-Glo cell proliferation assay, DOHH2 cells; type: cell-based; conditions: Homo sapiens, DOHH-2, 72 hours
Protocol: The CellTiter-Glo® Luminescent Cell Viability Assay (Promega, G7573) was used to study the cellular potency of disclosed compounds herein. The cells were harvested during the logarithmic growth period and counted with hemocytometer. The DOHH2 cells were seeded at 1.6*10^4 in 90 ul DMEM medium supplemented with 10% fetal bovine serum (FBS) (as RS4;11 cells were seeded at 4000 in 90 ul RPMI-1640 medium with 10% FBS) per well in 96-well plates and treated with 10 ul of a serial dilution of compounds disclosed herein (maximum concentration and dilution ratio determined by the results of pre-experiment may vary) for 72 hours in a 5% CO2 incubator at 37° C. Cell viability was assessed according to the manufacturer's recommendations. After the plates return to the room temperature, 100 ul of CellTiter-Glo® reagent was added to 100 ul of cell culture. The mixture was agitated on an orbital shaker for 2 minutes or placed it at room temperature for 10 minutes to allow cell lysis and stabilization of luminescent signals. Luminescent signals were recorded using Envision 2104 instrument. And GI50 values were then calculated.

T1 sequence (P10415 whole entry): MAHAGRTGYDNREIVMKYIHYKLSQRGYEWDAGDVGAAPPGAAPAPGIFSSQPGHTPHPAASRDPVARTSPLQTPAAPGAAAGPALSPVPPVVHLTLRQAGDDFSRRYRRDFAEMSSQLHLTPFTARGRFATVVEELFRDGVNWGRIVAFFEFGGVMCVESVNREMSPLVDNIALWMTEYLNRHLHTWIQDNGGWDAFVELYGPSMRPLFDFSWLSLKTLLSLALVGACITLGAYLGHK

In the case of `O=C(NS(=O)(=O)c1cccc([N+](=O)[O-])c1)c1ccc(N2CCN(C3CCCc4ccccc43)CC2)cc1Oc1cnc2[nH]ccc2c1` (stereo not drawn) [Compound 1, 2-((1H-pyrrolo[2,3-b]pyridin-5-yl)oxy)-N-((3-nitrophenyl)sulfonyl)-4-(4-(1,2,3,4-tetrahydronaphthalen-1-yl)piperazin-1-yl)benzamide], the IC50 (BCL-2) is reported as 200 to 2000 nM.

`O=C(NS(=O)(=O)c1ccc(NCC2CCOCC2)c([N+](=O)[O-])c1)c1ccc(N2CCN(C3CCCc4ccccc43)CC2)cc1Oc1cnc2[nH]ccc2c1` (stereo not drawn) [Compound 2, 2-((1H-pyrrolo[2,3-b]pyridin-5-yl)oxy)-N-((3-nitro-4-(((tetrahydro-2H-pyran-4-yl)methyl)amino)phenyl)sulfonyl)-4-(4-(1,2,3,4-tetrahydronaphthalen-1-yl)piperazin-1-yl)benzamide] was tested, and the IC50 (BCL-2) was 20 to 200 nM and the GI50 (DOHH2 cells) was > 5000 nM.

Work on `O=C(NS(=O)(=O)c1cccc([N+](=O)[O-])c1)c1ccc(N2CCN(C3CCc4ccccc43)CC2)cc1Oc1cnc2[nH]ccc2c1` (stereo not drawn) [Compound 3, 2-((1H-pyrrolo[2,3-b]pyridin-5-yl)oxy)-4-(4-(2,3-dihydro-1H-inden-1-yl)piperazin-1-yl)-N-((3-nitrophenyl)sulfonyl)benzamide] yielded an IC50 (BCL-2) of 200 to 2000 nM.

`O=C(NS(=O)(=O)c1ccc(NCC2CCOCC2)c([N+](=O)[O-])c1)c1ccc(N2CCN(C3CCc4ccccc43)CC2)cc1Oc1cnc2[nH]ccc2c1` (stereo not drawn) [Compound 4, 2-((1H-pyrrolo[2,3-b]pyridin-5-yl)oxy)-4-(4-(2,3-dihydro-1H-inden-1-yl)piperazin-1-yl)-N-((3-nitro-4-(((tetrahydro-2H-pyran-4-yl)methyl)amino)phenyl)sulfonyl)benzamide] was tested, and the IC50 (BCL-2) was 20 to 200 nM and the GI50 (DOHH2 cells) was 500 to 5000 nM.

For `O=C(NS(=O)(=O)c1ccc(NCC2CCOCC2)c([N+](=O)[O-])c1)c1ccc(N2CCN(C3CCCCc4ccccc43)CC2)cc1Oc1cnc2[nH]ccc2c1` (stereo not drawn) [Compound 6, 2-((1H-pyrrolo[2,3-b]pyridin-5-yl)oxy)-N-((3-nitro-4-(((tetrahydro-2H-pyran-4-yl)methyl)amino)phenyl)sulfonyl)-4-(4-(6,7,8,9-tetrahydro-5H-benzo[7]annulen-5-yl)piperazin-1-yl)benzamide], the IC50 (BCL-2) was < 20 nM and the GI50 (DOHH2 cells) was 50 to 500 nM.

`O=C(NS(=O)(=O)c1cccc([N+](=O)[O-])c1)c1ccc(N2CCN(C3CCCc4cccc(-c5ccccc5)c43)CC2)cc1Oc1cnc2[nH]ccc2c1` (stereo not drawn) [Compound 8, 2-((1H-pyrrolo[2,3-b]pyridin-5-yl)oxy)-N-((3-nitrophenyl)sulfonyl)-4-(4-(8-phenyl-1,2,3,4-tetrahydronaphthalen-1-yl)piperazin-1-yl)benzamide] was tested, and the IC50 (BCL-2) was 200 to 2000 nM.

In the case of `O=C(NS(=O)(=O)c1cccc([N+](=O)[O-])c1)c1ccc(N2CCN(C3CCOc4ccccc43)CC2)cc1Oc1cnc2[nH]ccc2c1` (stereo not drawn) [Compound 9, 2-((1H-pyrrolo[2,3-b]pyridin-5-yl)oxy)-4-(4-(chroman-4-yl)piperazin-1-yl)-N-((3-nitrophenyl)sulfonyl)benzamide], the IC50 (BCL-2) is reported as 200 to 2000 nM.

Compound `O=C(NS(=O)(=O)c1cccc([N+](=O)[O-])c1)c1ccc(N2CCN(C3CCCc4cccc(-c5ccsc5)c43)CC2)cc1Oc1cnc2[nH]ccc2c1` (stereo not drawn) [Compound 11, 2-((1H-pyrrolo[2,3-b]pyridin-5-yl)oxy)-N-((3-nitrophenyl)sulfonyl)-4-(4-(8-(thiophen-3-yl)-1,2,3,4-tetrahydronaphthalen-1-yl)piperazin-1-yl)benzamide] has an IC50 (BCL-2) of 200 to 2000 nM.

In the case of `O=C(NS(=O)(=O)c1cccc([N+](=O)[O-])c1)c1ccc(N2CCN(C3CCCc4cccc(-c5cccc(Cl)c5)c43)CC2)cc1Oc1cnc2[nH]ccc2c1` (stereo not drawn) [Compound 14, 2-((1H-pyrrolo[2,3-b]pyridin-5-yl)oxy)-4-(4-(8-(3-chlorophenyl)-1,2,3,4-tetrahydronaphthalen-1-yl)piperazin-1-yl)-N-((3-nitrophenyl)sulfonyl)benzamide], the IC50 (BCL-2) is reported as 200 to 2000 nM.

`O=C(NS(=O)(=O)c1cccc([N+](=O)[O-])c1)c1ccc(N2CCN(C3CCCc4cccc(-c5cccs5)c43)CC2)cc1Oc1cnc2[nH]ccc2c1` (stereo not drawn) [Compound 15, 2-((1H-pyrrolo[2,3-b]pyridin-5-yl)oxy)-N-((3-nitrophenyl)sulfonyl)-4-(4-(8-(thiophen-2-yl)-1,2,3,4-tetrahydronaphthalen-1-yl)piperazin-1-yl)benzamide] showed an IC50 (BCL-2) of 200 to 2000 nM.

For `O=C(NS(=O)(=O)c1ccc(NCC2CCOCC2)c([N+](=O)[O-])c1)c1ccc(N2CCN(C3CCOc4ccccc43)CC2)cc1Oc1cnc2[nH]ccc2c1` (stereo not drawn) [Compound 17, 2-((1H-pyrrolo[2,3-b]pyridin-5-yl)oxy)-4-(4-(chroman-4-yl)piperazin-1-yl)-N-((3-nitro-4-(((tetrahydro-2H-pyran-4-yl)methyl)amino)phenyl)sulfonyl)benzamide], the IC50 (BCL-2) was 20 to 200 nM and the GI50 (DOHH2 cells) was 500 to 5000 nM.

Work on `O=C(NS(=O)(=O)c1ccc(NCC2CCOCC2)c([N+](=O)[O-])c1)c1ccc(N2CCN(C3CCCCc4ccc(-c5ccccc5)cc43)CC2)cc1Oc1cnc2[nH]ccc2c1` (stereo not drawn) [Compound 22, 2-((1H-pyrrolo[2,3-b]pyridin-5-yl)oxy)-N-((3-nitro-4-(((tetrahydro-2H-pyran-4-yl)methyl)amino)phenyl)sulfonyl)-4-(4-(3-phenyl-6,7,8,9-tetrahydro-5H-benzo[7]annulen-5-yl)piperazin-1-yl)benzamide] yielded an IC50 (BCL-2) of 20 to 200 nM and a GI50 (DOHH2 cells) of 500 to 5000 nM.

`O=C(NS(=O)(=O)c1ccc(NCC2CCOCC2)c([N+](=O)[O-])c1)c1ccc(N2CCN(C3CCCCc4c(Cl)cccc43)CC2)cc1Oc1cnc2[nH]ccc2c1` (stereo not drawn) [Compound 27, 2-((1H-pyrrolo[2,3-b]pyridin-5-yl)oxy)-4-(4-(1-chloro-6,7,8,9-tetrahydro-5H-benzo[7]annulen-5-yl)piperazin-1-yl)-N-((3-nitro-4-(((tetrahydro-2H-pyran-4-yl)methyl)amino)phenyl)sulfonyl)benzamide] was tested, and the IC50 (BCL-2) was < 20 nM and the GI50 (DOHH2 cells) was < 50 nM.

With `O=C(NS(=O)(=O)c1ccc(NCC2CCOCC2)c([N+](=O)[O-])c1)c1ccc(N2CCN(C3CCCOc4ccccc43)CC2)cc1Oc1cnc2[nH]ccc2c1` (stereo not drawn) [Compound 36, 2-((1H-pyrrolo[2,3-b]pyridin-5-yl)oxy)-N-((3-nitro-4-(((tetrahydro-2H-pyran-4-yl)methyl)amino)phenyl)sulfonyl)-4-(4-(2,3,4,5-tetrahydrobenzo[b]oxepin-5-yl)piperazin-1-yl)benzamide] the IC50 (BCL-2) was < 20 nM and the GI50 (DOHH2 cells) was 50 to 500 nM.

For `O=C(NS(=O)(=O)c1ccc(NCC2CCOCC2)c([N+](=O)[O-])c1)c1ccc(N2CCN(C3CCCCc4c(C5CCCC5)cccc43)CC2)cc1Oc1cnc2[nH]ccc2c1` (stereo not drawn) [Compound 55, 2-((1H-pyrrolo[2,3-b]pyridin-5-yl)oxy)-4-(4-(1-cyclopentyl-6,7,8,9-tetrahydro-5H-benzo[7]annulen-5-yl)piperazin-1-yl)-N-((3-nitro-4-(((tetrahydro-2H-pyran-4-yl)methyl)amino)phenyl)sulfonyl)benzamide], the IC50 (BCL-2) was 20 to 200 nM and the GI50 (DOHH2 cells) was > 5000 nM.

In the case of `Cc1nnc2n1CC(CNc1ccc(S(=O)(=O)NC(=O)c3ccc(N4CCN(C5CCCCc6c(Cl)cccc65)CC4)cc3Oc3cnc4[nH]ccc4c3)cc1[N+](=O)[O-])CC2` (stereo not drawn) [Compound 57, 2-((1H-pyrrolo[2,3-b]pyridin-5-yl)oxy)-4-(4-(1-chloro-6,7,8,9-tetrahydro-5H-benzo[7]annulen-5-yl)piperazin-1-yl)-N-((4-(((3-methyl-5,6,7,8-tetrahydro-[1,2,4]triazolo[4,3-a]pyridin-6-yl)methyl)amino)-3-nitrophenyl)sulfonyl)benzamide], the IC50 (BCL-2) is reported as < 20 nM and the GI50 (DOHH2 cells) is reported as 500 to 5000 nM.

In the case of `Nc1cccc2c1CCCCC2N1CCN(c2ccc(C(=O)NS(=O)(=O)c3ccc(NCC4CCOCC4)c([N+](=O)[O-])c3)c(Oc3cnc4[nH]ccc4c3)c2)CC1` (stereo not drawn) [Compound 58, 2-((1H-pyrrolo[2,3-b]pyridin-5-yl)oxy)-4-(4-(1-amino-6,7,8,9-tetrahydro-5H-benzo[7]annulen-5-yl)piperazin-1-yl)-N-((3-nitro-4-(((tetrahydro-2H-pyran-4-yl)methyl)amino)phenyl)sulfonyl)benzamide], the IC50 (BCL-2) is reported as < 20 nM and the GI50 (DOHH2 cells) is reported as 500 to 5000 nM.

`CC(=O)Nc1cccc2c1CCCCC2N1CCN(c2ccc(C(=O)NS(=O)(=O)c3ccc(NCC4CCOCC4)c([N+](=O)[O-])c3)c(Oc3cnc4[nH]ccc4c3)c2)CC1` (stereo not drawn) [Compound 59, 2-((1H-pyrrolo[2,3-b]pyridin-5-yl)oxy)-4-(4-(1-acetamido-6,7,8,9-tetrahydro-5H-benzo[7]annulen-5-yl)piperazin-1-yl)-N-((3-nitro-4-(((tetrahydro-2H-pyran-4-yl)methyl)amino)phenyl)sulfonyl)benzamide] was tested, and the IC50 (BCL-2) was < 20 nM and the GI50 (DOHH2 cells) was > 5000 nM.

For `CC1(C)CCC2(CC1)CC(CNc1ccc(S(=O)(=O)NC(=O)c3ccc(N4CCN([C@@H]5CCCCc6c(Cl)cccc65)CC4)cc3Oc3cnc4[nH]ccc4c3)cc1[N+](=O)[O-])C2` [Compound 136, (R)-2-((1H-pyrrolo[2,3-b]pyridin-5-yl)oxy)-4-(4-(1-chloro-6,7,8,9-tetrahydro-5H-benzo[7]annulen-5-yl)piperazin-1-y1)-N-((4-(((7,7-dimethylspiro[3.5]nonan-2-yl)methyl)amino)-3-nitrophenyl)sulfonyl)benzamide], the GI50 (DOHH2 cells) was > 5000 nM.
